Values of other authors as cited in publication PMC11439047 (Nature Communications, 2024).

System: P2X1 receptor
Conditions: cited from earlier work

O=C(O)c1cc(C(=O)O)c(C(=O)N(Cc2cccc(Oc3ccccc3)c2)[C@H]2CCCc3ccccc32)cc1C(=O)O [A-317491]
activity for the P2X1 receptor: weak activity
